Test results taken from PubChem BioAssay (NCI).
“And” between values parts separate entries of the source, which are not always exact repeats. Equal entries are not always repeated.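 Five compound concentrations were applied to cells in 96-well plates for 48 hours; endpoints were derived by simple linear interpolation of the resulting dose-response curve. GI50 = concentration required for 50% inhibition of growth. TGI is the concentration that stops growth completely.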

Assays:
Experiment in all cases: NCI-60 cell line screen, 48 h
HCT-116 colon = system: HCT-116 colon
OVCAR-4 ovarian = system: OVCAR-4 ovarian
LOX IMVI melanoma = system: LOX IMVI melanoma
HT29 colon = system: HT29 colon
SF-295 CNS = system: SF-295 CNS
SNB-19 CNS = system: SNB-19 CNS
HCT-15 colon = system: HCT-15 colon
HCC-2998 colon = system: HCC-2998 colon
HS 578T breast = system: HS 578T breast

Row | Compound | TGI (HCT-116 colon) | TGI (OVCAR-4 ovarian) | TGI (LOX IMVI melanoma) | TGI (HT29 colon) | TGI (SF-295 CNS) | TGI (SNB-19 CNS) | TGI (HCT-15 colon) | TGI (HCC-2998 colon) | GI50 (HCC-2998 colon) | GI50 (OVCAR-4 ovarian) | GI50 (HS 578T breast) | TGI (HS 578T breast) | GI50 (SF-295 CNS) | GI50 (HCT-15 colon) | GI50 (HCT-116 colon) | GI50 (LOX IMVI melanoma) | GI50 (HT29 colon) | GI50 (SNB-19 CNS)
1 | FC(F)(F)c1nc(-c2ccccc2Cl)[nH]c1C(F)(F)F | 2.15 µM | 22.1 µM | 1.23 µM | 4.22 µM | 2.03 µM | 8.27 µM | 3.52 µM |  |  |  |  |  |  |  |  |  |  | 
2 | Cn1cc(NC(=O)c2cc(NC(=O)CCCCCCCCCCC(=O)Nc3cc(C(=O)Nc4cc(C(=O)NCCC(=N)N)n(C)c4)n(C)c3)cn2C)cc1C(=O)NCCC(=N)N | > 100 µM | > 100 µM | > 100 µM | > 100 µM | > 100 µM | > 100 µM | > 100 µM | 73.6 µM |  |  |  |  |  |  |  |  |  | 
3 | CCC(C)C1NC(=O)c2nc(oc2-c2ccccc2)-c2csc(n2)-c2csc(n2)-c2nc(oc2C)-c2coc(n2)CNC(=O)C(C(C)CC)NC1=O (centres undefined) | 0.0335 µM | 0.0982 µM |  |  | 0.178 µM |  | 0.18 µM | 0.249 µM | 54.3 nM | 25.8 nM | 0.0424 µM | 0.218 µM | 0.0469 µM | 0.0361 µM |  |  |  | 
4 | Cc1cc2c(cc1C)[n+](=O)c(C(=O)C/C(=N/NC(=O)c1ccccc1O)C(=O)Nc1ccccc1C(C)C)c(C)n2[O-] | > 100 µM | > 100 µM | > 100 µM | > 100 µM | > 100 µM | > 100 µM | > 100 µM | > 100 µM |  |  |  |  |  |  |  |  |  | 
5 | N#CC1(c2nc3ccccc3o2)C(=O)C(=O)N(C2C3CC4CC(C3)CC2C4)C(=O)C1=O (centres undefined) | > 100 µM | > 100 µM | > 100 µM | > 100 µM | > 100 µM | > 100 µM | > 100 µM | > 100 µM |  |  |  |  |  |  |  |  |  | 
6 | CCOC(=O)C1=C(C)Nc2ccccc2S1 | > 100 µM | > 100 µM | > 100 µM | > 100 µM | > 100 µM | > 100 µM | > 100 µM | > 100 µM |  |  |  |  |  |  |  |  |  | 
7 | NC(N)=N/N=C(/c1ccccc1)c1ccc(F)cc1 | 4.15 µM | 37.7 µM | 10.7 µM | 2.63 µM | 2.25 µM | 19.5 µM | 13.4 µM | 2.09 µM | 416 nM | 1010 nM | 0.452 µM | 27.7 µM | 0.243 µM | 0.4 µM | 0.33 µM | 0.513 µM | 0.3 µM | 0.476 µM
8 | CN(C)/C(=N/C(=S)Nc1ccccc1)SCc1ccccc1 |  | > 100 µM | > 100 µM | > 100 µM | > 100 µM | > 100 µM | > 100 µM | > 100 µM |  |  |  |  |  |  |  |  |  | 
9 | COc1ccc2cc1Oc1ccc(cc1)C[C@H]1c3cc(c(OC)cc3CCN1C)Oc1c(OC)c(OC)cc3c1[C@H](C2)N(C)CC3 | 11.1 µM and 14.9 µM and > 100 µM | 11.1 µM and 28.5 µM |  |  | 16.3 µM and 28.9 µM and > 100 µM | 13 µM and 20.1 µM and 60.6 µM | 16.5 µM and 18.5 µM | 8.65 µM |  | 12400 nM | 13.1 µM | 19.1 µM and 28.2 µM and > 100 µM | 12.8 µM | 5.99 µM | 3.8 µM |  |  | 7.55 µM
10 | CCCCCCCCCCCCCCCC(=O)NCC(COP(=O)([O-])OCC[N+](C)(C)C)OCC (centres undefined) | 23.9 µM | 17.7 µM | 34.4 µM | 16.3 µM | 18.6 µM | 11 µM | 19.3 µM | 3.1 µM |  |  |  |  |  |  |  |  |  | 
11 | COC(=O)C(C#N)=C1c2ccccc2Oc2ccccc21 |  | > 100 µM | > 100 µM | > 100 µM | > 100 µM | > 100 µM | > 100 µM | > 100 µM |  |  |  |  |  |  |  |  |  | 
12 | CCCCCCCCCCCCC(=O)OC(c1cnco1)c1nc(C(O)CC(O)C(O)C(C)O)co1 (centres undefined) | > 100 µM | 91.5 µM | > 42.4 µM | > 100 µM | 98.3 µM | > 100 µM | > 100 µM | > 100 µM | 1680 nM | 2020 nM |  |  | 1.52 µM |  | 0.459 µM | 0.735 µM | 1.1 µM | 
13 | CC(C)(C)OC(=O)n1cc(CNC(=S)Nc2ccccc2)c2ccccc21 | 30.1 µM | > 100 µM | 23 µM | > 100 µM | 23.4 µM | 61.7 µM | 22.9 µM |  |  | 49400 nM | 13.7 µM | 42.2 µM | 6.04 µM | 10.9 µM | 15.2 µM | 11.1 µM | 22.3 µM | 15.3 µM
14 | COC(=O)C(c1[nH]nc2ccccc12)C(C(=O)OC)c1[nH]nc2ccccc12 (centres undefined) | > 100 µM | 53.4 µM | > 100 µM | > 100 µM | > 100 µM | > 100 µM | > 100 µM | > 100 µM |  |  |  |  |  |  |  |  |  | 
15 | C=C1C(O)C2CCC(C)(C)C(=O)C2=C(CC(C)C)C12CC2 (centres undefined) | > 100 µM | > 100 µM | > 100 µM | > 100 µM | > 100 µM | > 100 µM | > 100 µM | 65.8 µM | 16600 nM | > 100000 nM | 18.9 µM | 92.9 µM | 36.6 µM | 54.4 µM | 37.2 µM | 68.5 µM | 76.6 µM | 59.5 µM
